Test results from patent US8592629B2, “Sulfonamide derivatives as Nav 1.7 inhibitors” (Pfizer Limited, priority 2010, dated 2013).
Counter-ions that a name gives are not always drawn.

These compounds were tested against T1, Nav1.7 (or SCN9A) channel (Homo sapiens, UniProt Q15858) (assay: Nav1.7 (hSCN9A) block in HEK cells, PatchXpress 7000 automated electrophysiology, estimated IC50 (EIC50)). Conditions: PatchXpress assay; HEK cells stably transfected with hSCN9A, voltage-clamped at V1/2 of inactivation.
T1 construct: expressed in transfected cells
T1 sequence (Q15858 whole entry): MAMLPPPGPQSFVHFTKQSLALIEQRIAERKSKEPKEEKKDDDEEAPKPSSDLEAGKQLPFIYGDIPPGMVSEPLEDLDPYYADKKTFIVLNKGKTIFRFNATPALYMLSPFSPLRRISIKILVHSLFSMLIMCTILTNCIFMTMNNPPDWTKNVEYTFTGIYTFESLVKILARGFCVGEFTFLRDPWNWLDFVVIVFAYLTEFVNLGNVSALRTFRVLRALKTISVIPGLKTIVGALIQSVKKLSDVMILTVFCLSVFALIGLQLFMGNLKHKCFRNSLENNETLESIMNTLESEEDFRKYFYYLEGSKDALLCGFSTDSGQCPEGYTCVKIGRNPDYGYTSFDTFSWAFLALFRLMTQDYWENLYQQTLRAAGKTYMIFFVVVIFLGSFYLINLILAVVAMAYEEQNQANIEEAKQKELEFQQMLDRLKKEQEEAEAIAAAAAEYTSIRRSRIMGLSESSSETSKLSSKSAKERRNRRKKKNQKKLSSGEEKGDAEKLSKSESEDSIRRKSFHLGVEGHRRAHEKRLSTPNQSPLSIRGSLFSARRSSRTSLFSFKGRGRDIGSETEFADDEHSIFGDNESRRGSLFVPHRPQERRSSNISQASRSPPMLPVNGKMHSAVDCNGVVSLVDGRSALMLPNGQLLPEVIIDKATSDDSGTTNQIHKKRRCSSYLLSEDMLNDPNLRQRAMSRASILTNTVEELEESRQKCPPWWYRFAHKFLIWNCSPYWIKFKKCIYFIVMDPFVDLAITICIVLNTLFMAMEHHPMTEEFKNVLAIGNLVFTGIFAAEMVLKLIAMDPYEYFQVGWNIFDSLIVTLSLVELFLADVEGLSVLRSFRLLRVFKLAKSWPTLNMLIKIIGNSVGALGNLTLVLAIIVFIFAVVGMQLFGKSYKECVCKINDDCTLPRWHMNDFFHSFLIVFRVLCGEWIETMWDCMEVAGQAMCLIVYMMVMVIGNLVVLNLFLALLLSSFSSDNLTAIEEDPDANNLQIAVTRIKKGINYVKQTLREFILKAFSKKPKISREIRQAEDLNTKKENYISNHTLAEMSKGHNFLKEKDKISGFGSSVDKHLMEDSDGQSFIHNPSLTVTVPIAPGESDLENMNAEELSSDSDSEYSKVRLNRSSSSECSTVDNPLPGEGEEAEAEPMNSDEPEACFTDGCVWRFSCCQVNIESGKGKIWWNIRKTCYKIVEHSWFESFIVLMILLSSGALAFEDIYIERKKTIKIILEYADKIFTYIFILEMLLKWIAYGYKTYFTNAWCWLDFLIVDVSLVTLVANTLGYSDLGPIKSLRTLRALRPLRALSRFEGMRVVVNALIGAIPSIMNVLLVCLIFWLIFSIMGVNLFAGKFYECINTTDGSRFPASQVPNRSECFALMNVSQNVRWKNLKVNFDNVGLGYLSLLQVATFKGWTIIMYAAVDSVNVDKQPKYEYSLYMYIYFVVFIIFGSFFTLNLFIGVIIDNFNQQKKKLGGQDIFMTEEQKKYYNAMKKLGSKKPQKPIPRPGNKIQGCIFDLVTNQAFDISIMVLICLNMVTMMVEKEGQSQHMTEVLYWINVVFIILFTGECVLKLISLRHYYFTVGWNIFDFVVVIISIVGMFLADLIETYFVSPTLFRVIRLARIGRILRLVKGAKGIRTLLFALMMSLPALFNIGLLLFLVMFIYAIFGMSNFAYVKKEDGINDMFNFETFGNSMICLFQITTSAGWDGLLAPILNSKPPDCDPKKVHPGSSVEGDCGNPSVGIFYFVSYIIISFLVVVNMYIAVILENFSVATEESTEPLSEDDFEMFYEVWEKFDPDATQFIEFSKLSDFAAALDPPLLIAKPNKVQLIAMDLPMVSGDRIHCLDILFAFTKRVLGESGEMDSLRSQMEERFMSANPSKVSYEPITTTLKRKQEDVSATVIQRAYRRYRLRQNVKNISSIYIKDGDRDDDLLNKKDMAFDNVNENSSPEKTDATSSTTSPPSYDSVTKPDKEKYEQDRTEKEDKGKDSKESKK
Assay type: cell-based
In short: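 Stable hSCN9A HEK cells voltage-clamped at empirically determined inactivation V1/2 (8 s prepulse), current activated by 20 msec step to 0 mV; % inhibition from current before vs after compound. EIC50 derived from single-point data as concentration × (100−%inhibition)/%inhibition, excluding <20% and >80% inhibition; PatchXpress unless stated.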

Row | SMILES | IC50
1 | CS(=O)(=O)NC(=O)c1cc(Cl)c(Oc2cnc(OCC(F)(F)C(F)F)c(C(F)(F)F)c2)cc1F [Example 105, 5-Chloro-2-fluoro-N-(methylsulfonyl)-4-(6-(2,2,3,3-tetrafluoropropoxy)-5-(trifluoromethyl)pyridin-3-yloxy)benzamide] | 31 nM
2 | CS(=O)(=O)NC(=O)c1cc(Cl)c(Oc2cnc(C3CC3)c(OC(F)F)c2)cc1F [Example 106, 5-chloro-4-(6-cyclopropyl-5-(difluoromethoxy)pyridin-3-yloxy)-2-fluoro-N-(methylsulfonyl)benzamide] | 1100 nM
3 | CS(=O)(=O)NC(=O)c1cc(Cl)c(Oc2cnc(C3CC3)c(C(F)(F)F)c2)cc1F [Example 107, 5-chloro-4-(6-cyclopropyl-5-(trifluoromethyl)pyridin-3-yloxy)-2-fluoro-N-(methylsulfonyl)benzamide] | 49 nM
4 | CS(=O)(=O)NC(=O)c1cc(Cl)c(Oc2cnc(C3CC(F)(F)C3)c(Cl)c2)cc1F [Example 109, 5-chloro-4-{[5-chloro-6-(3,3-difluorocyclobutyl)pyridin-3-yl]oxy}-2-fluoro-N-(methylsulfonyl)benzamide] | 97 nM
5 | CS(=O)(=O)NC(=O)c1cc(Cl)c(Oc2cnc(C3CC3)c(OC(F)(F)F)c2)cc1F [Example 110, 5-chloro-4-(6-cyclopropyl-5-(trifluoromethoxy)pyridin-3-yloxy)-2-fluoro-N-(methylsulfonyl)benzamide] | 100 nM
6 | CC(C)c1ncc(Oc2cc(F)c(C(=O)NS(C)(=O)=O)cc2Cl)cc1Cl [Example 111, 5-Chloro-4-(5-chloro-6-isopropylpyridin-3-yloxy)-2-fluoro-N-(methylsulfonyl)benzamide] | 290 nM
7 | CS(=O)(=O)NC(=O)c1cc(F)c(Oc2cnc(NCC3CCC3)c(Cl)c2)cc1F [Example 115, 4-({5-chloro-6-[(cyclobutylmethyl)amino]pyridin-3-yl}oxy)-2,5-difluoro-N-(methylsulfonyl)benzamide] | 54 nM
8 | CN(c1ncc(Oc2cc(F)c(C(=O)NS(C)(=O)=O)cc2F)cc1Cl)C1CC1 [Example 116, 4-({5-chloro-6-[cyclopropyl(methyl)amino]pyridin-3-yl}oxy)-2,5-difluoro-N-(methylsulfonyl)benzamide] | 980 nM
9 | CCN(C)c1ncc(Oc2cc(F)c(C(=O)NS(C)(=O)=O)cc2F)cc1Cl [Example 117, 4-({5-chloro-6-[ethyl(methyl)amino]pyridin-3-yl}oxy)-2,5-difluoro-N-(methylsulfonyl)benzamide] | 900 nM
10 | CCN1CCN(c2ncc(Oc3cc(F)c(C(=O)NS(C)(=O)=O)cc3F)cc2Cl)CC1 [Example 118, 4-{[5-chloro-6-(4-ethylpiperazin-1-yl)pyridin-3-yl]oxy}-2,5-difluoro-N-(methylsulfonyl)benzamide] | > 1000 nM
11 | CS(=O)(=O)NC(=O)c1cc(F)c(Oc2cnc(N[C@H]3CC[C@H](F)C3)c(Cl)c2)cc1F [Example 120, 4-[(5-chloro-6-{[(1S,3S)-3-fluorocyclopentyl]amino}pyridin-3-yl)oxy]-2,5-difluoro-N-(methylsulfonyl)benzamide] | 660 nM
12 | COC(C)(C)CNc1ncc(Oc2cc(F)c(C(=O)NS(C)(=O)=O)cc2F)cc1Cl [Example 122, 4-({5-chloro-6-[(2-methoxy-2-methylpropyl)amino]pyridin-3-yl}oxy)-2,5-difluoro-N-(methylsulfonyl)benzamide] | 250 nM
13 | CS(=O)(=O)NC(=O)c1cc(F)c(Oc2cnc(N3CCC(F)C3)c(Cl)c2)cc1F (centres unmarked) [Example 124, 4-{[5-chloro-6-(3-fluoropyrrolidin-1-yl)pyridin-3-yl]oxy}-2,5-difluoro-N-(methylsulfonyl)benzamide] | 640 nM
14 | CN1CCCC(Nc2ncc(Oc3cc(F)c(C(=O)NS(C)(=O)=O)cc3F)cc2Cl)C1 (centres unmarked) [Example 127, 4-({5-chloro-6-[(1-methylpiperidin-3-yl)amino]pyridin-3-yl}oxy)-2,5-difluoro-N-(methylsulfonyl)benzamide] | > 1000 nM
15 | CCC(COC)Nc1ncc(Oc2cc(F)c(C(=O)NS(C)(=O)=O)cc2F)cc1Cl (centres unmarked) [Example 129, 4-[(5-chloro-6-{[1-(methoxymethyl)propyl]amino}pyridin-3-yl)oxy]-2,5-difluoro-N-(methylsulfonyl)benzamide] | 540 nM
16 | CS(=O)(=O)NC(=O)c1cc(F)c(Oc2cnc(N3CC(F)(F)C3)c(Cl)c2)cc1F [Example 130, 4-{[5-chloro-6-(3,3-difluoroazetidin-1-yl)pyridin-3-yl]oxy}-2,5-difluoro-N-(methylsulfonyl)benzamide] | 740 nM
17 | C[C@@H]1CCCN1c1ncc(Oc2cc(F)c(C(=O)NS(C)(=O)=O)cc2F)cc1Cl [Example 132, 4-({5-chloro-6-[(2R)-2-methylpyrrolidin-1-yl]pyridin-3-yl}oxy)-2,5-difluoro-N-(methylsulfonyl)benzamide] | 160 nM
18 | COC[C@H](C)Nc1ncc(Oc2cc(F)c(C(=O)NS(C)(=O)=O)cc2F)cc1Cl [Example 136, 4-[(5-chloro-6-{[(1S)-2-methoxy-1-methylethyl]amino}pyridin-3-yl)oxy]-2,5-difluoro-N-(methylsulfonyl)benzamide] | 890 nM
19 | CNc1ncc(Oc2cc(F)c(C(=O)NS(C)(=O)=O)cc2F)cc1Cl [Example 137, 4-{[5-chloro-6-(methylamino)pyridin-3-yl]oxy}-2,5-difluoro-N-(methylsulfonyl)benzamide] | 3200 nM
20 | CS(=O)(=O)NC(=O)c1cc(F)c(Oc2cnc(NC3CCCC3)c(Cl)c2)cc1F [Example 138, 4-{[5-chloro-6-(cyclopentylamino)pyridin-3-yl]oxy}-2,5-difluoro-N-(methylsulfonyl)benzamide] | 85 nM

The remaining compounds from weak to strong by IC50, led by results:

Row | IC50 | SMILES
21 | 2400 nM | CO[C@@H]1CCCN(c2ncc(Oc3cc(F)c(C(=O)NS(C)(=O)=O)cc3F)cc2Cl)C1 [Example 128, 4-({5-chloro-6-[(3R)-3-methoxypiperidin-1-yl]pyridin-3-yl}oxy)-2,5-difluoro-N-(methylsulfonyl)benzamide]
22 | 960 nM | COC1(C)CN(c2ncc(Oc3cc(F)c(C(=O)NS(C)(=O)=O)cc3F)cc2Cl)C1 [Example 125, 4-{[5-chloro-6-(3-methoxy-3-methylazetidin-1-yl)pyridin-3-yl]oxy}-2,5-difluoro-N-(methylsulfonyl)benzamide]
23 | 680 nM | COCC1CCCN1c1ncc(Oc2cc(F)c(C(=O)NS(C)(=O)=O)cc2F)cc1Cl (centres unmarked) [Example 121, 4-({5-chloro-6-[2-(methoxymethyl)pyrrolidin-1-yl]pyridin-3-yl}oxy)-2,5-difluoro-N-(methylsulfonyl)benzamide]
24 | 580 nM | CS(=O)(=O)NC(=O)c1cc(F)c(Oc2cnc(N3CC(F)C3)c(Cl)c2)cc1F [Example 134, 4-{[5-chloro-6-(3-fluoroazetidin-1-yl)pyridin-3-yl]oxy}-2,5-difluoro-N-(methylsulfonyl)benzamide]
25 | 470 nM | CC1CCN(c2ncc(Oc3cc(F)c(C(=O)NS(C)(=O)=O)cc3F)cc2Cl)CC1 [Example 126, 4-{[5-chloro-6-(4-methylpiperidin-1-yl)pyridin-3-yl]oxy}-2,5-difluoro-N-(methylsulfonyl)benzamide]
26 | 400 nM | CS(=O)(=O)NC(=O)c1cc(F)c(Oc2cnc(N3C[C@@H](F)[C@H](F)C3)c(Cl)c2)cc1F [Example 119, 4-({5-chloro-6-[(3R,4R)-3,4-difluoropyrrolidin-1-yl]pyridin-3-yl}oxy)-2,5-difluoro-N-(methylsulfonyl)benzamide]
27 | 240 nM | CS(=O)(=O)NC(=O)c1cc(Cl)c(Oc2cnc(-c3ccccc3)c(Cl)c2)cc1F [Example 108, 5-chloro-4-[(5-chloro-6-phenylpyridin-3-yl)oxy]-2-fluoro-N-(methylsulfonyl)benzamide]
28 | 210 nM | CC(C)N(C)c1ncc(Oc2cc(F)c(C(=O)NS(C)(=O)=O)cc2F)cc1Cl [Example 114, 4-({5-chloro-6-[isopropyl(methyl)amino]pyridin-3-yl}oxy)-2,5-difluoro-N-(methylsulfonyl)benzamide]
29 | 170 nM | CN(c1ncc(Oc2cc(F)c(C(=O)NS(C)(=O)=O)cc2F)cc1Cl)C1CCC1 [Example 133, 4-({5-chloro-6-[cyclobutyl(methyl)amino]pyridin-3-yl}oxy)-2,5-difluoro-N-(methylsulfonyl)benzamide]
30 | 140 nM | CC(C)CN(C)c1ncc(Oc2cc(F)c(C(=O)NS(C)(=O)=O)cc2F)cc1Cl [Example 135, 4-({5-chloro-6-[isobutyl(methyl)amino]pyridin-3-yl}oxy)-2,5-difluoro-N-(methylsulfonyl)benzamide]
31 | 120 nM | CS(=O)(=O)NC(=O)c1cc(F)c(Oc2cnc(N3CCC(F)(F)C3)c(Cl)c2)cc1F [Example 123, 4-{[5-chloro-6-(3,3-difluoropyrrolidin-1-yl)pyridin-3-yl]oxy}-2,5-difluoro-N-(methylsulfonyl)benzamide]
32 | 71 nM | CS(=O)(=O)NC(=O)c1cc(F)c(Oc2cnc(N3C[C@H]4CC[C@@H]3C4)c(Cl)c2)cc1F [Example 131, 4-({6-[(1R,4S)-2-azabicyclo[2.2.1]hept-2-yl]-5-chloropyridin-3-yl}oxy)-2,5-difluoro-N-(methylsulfonyl)benzamide]
33 | 67 nM | CC(F)(F)Oc1cc(Oc2cc(F)c(C(=O)NS(C)(=O)=O)cc2Cl)cnc1C1CC1 [Example 104, 5-chloro-4-(6-cyclopropyl-5-(1,1-difluoroethoxy)pyridin-3-yloxy)-2-fluoro-N-(methylsulfonyl)benzamide hydrochloride salt]
34 | 53 nM | CS(=O)(=O)NC(=O)c1cc(Cl)c(Oc2cnc(C3CC3)c(C3CC3)c2)cc1F [Example 113, 5-chloro-4-[(5,6-dicyclopropylpyridin-3-yl)oxy]-2-fluoro-N-(methylsulfonyl)benzamide]
35 | 19 nM | CS(=O)(=O)NC(=O)c1cc(Cl)c(Oc2cnc(C3CCC3)c(Cl)c2)cc1F [Example 112, 5-chloro-4-(5-chloro-6-cyclobutylpyridin-3-yloxy)-2-fluoro-N-(methylsulfonyl)benzamide]
